Measurements taken from patent publication US11679107B2 (Eisai R&D Management Co., Ltd., priority 2018, dated 2023).
Like-named read-outs stand apart in the source and are kept apart here.

Experiments:
[1] = system: NCI-H1568 cells (high MCL1); test: Cell proliferation and viability, CellTiter-Glo, 72 hours; type: cell-based; details: for GI50: geometric mean
Method: (§1) Cell lines were maintained in RPMI-1640 (ATCC 30-2001) supplemented with 10% fetal bovine serum (FBS). The Panc lines were supplemented in addition with insulin and FBS up to 15% total.
(§2) Compounds for assay were prepared as stocks in 90% dimethyl sulfoxide (DMSO), assessed for purity by LC/MS, and serially diluted in DMSO using a low-volume liquid handler (VIAFLO ASSIST and VIAFLO II electronic 16-channel pipette, 0.5-12.5 μL) in an 11-point half-log serial dilution to create a master dose response (MDR) source used for all tests.
(§3) Transfer of compounds from the MDR source plate to cell assay-ready plates were accomplished directly by low-energy acoustic transfer (ATS100, EDC Biosystems). After transfer of compounds to the assay plate, the dose-response range experienced by cells was typically 10 μM-100 pM (5 logs), and final DMSO concentration in the assay was 0.1%, uniformly. Each assay plate was self-anchored containing vehicle/DMSO negative controls, medium-only/positive controls, and cidal control dose-responses of bortezomib and staurosporine. Assay-ready plates were heat-sealed and stored at −20° C. until used, no longer than one month.
(§4) A DMSO-matched time zero (T0) plate was read and then all other plates were incubated at 37° C. with 5% CO2 and 95% relative humidity until the end of assay. Cell proliferation and viability assays were performed 72 hours post-treatment depending on cell growth where at least one doubling would have occurred.
(§5) Assessment of viability and proliferation was by measurement of cell ATP content using CellTiter-Glo® Luminescent Cell Viability Assay reagent (Promega) according to the manufacturer's instructions (CellTiter-Glo® Luminescent Cell Viability Assay Technical Bulletin Instructions for Use of Product(s) G7570, G7571, G7572, G7573 Literature #TB288, Revised March 2015), using a microtiter plate reader (Envision, PE).
(§6) Cell proliferation was evaluated using the time zero (T0) signal as the positive control and the within-plate vehicle wells (DMSO) as the negative control. Data was converted to percent inhibition and falls into the range from −100% to 100% of growth where −100% equals a cidal response and 100% equals uninhibited or maximal growth. Cell growth at or near 0% is considered a static response.

SF3b complexes = target: T1, SF3b complexes (Homo sapiens, UniProt O75533+Q7RTV0); test: Scintillation proximity assay (SPA) with [3H]-labelled pladienolide probe; type: binding; details: SF3B1 (WT); geometric mean; read-out: SPA-ATS GMean IC50 (nM) SF3B1 (WT)
T1 construct: endogenous in cells; host or cells: Nuclear extracts; A HeLa S3 extract preparation is described for the in vitro splicing assay
Method: Scintillation Proximity Assay (SPA) with [^3-H]-Labelled Pladienolide Probe
(§7) Batch immobilization of anti-SF3B1 antibody (MBL) to anti-mouse PVT SPA scintillation beads (PerkinElmer) was prepared as follows: for every 2.5 mg of nuclear extracts, 5 μg anti-SF3B1 antibody and 1.5 mg of beads were mixed in 150 μl PBS. The antibody-bead mixture was incubated for 30 min at RT and centrifuged at 18,000 g for 5 min. 150 μl PBS was used to resuspend every 1.5 mg antibody-bead mixture. The beads were suspended and added to the prepared nuclear extracts. The slurry was incubated for 2 h at 4° C. with gentle mixing. The beads were then collected by centrifuging at 18,000 g for 5 min, and washed twice with PBS+0.1% Triton X-100. After a final centrifugation step, every 1.5 mg of beads was suspended with 150 μl of PBS. The SF3b complexes were tested for [^3H]-labelled pladienolide probe binding ([^3H]—PB), synthesized as previously described (Kotake et al., 2007). 100 μl binding reactions were prepared with 50 μl bead slurry and by adding varying concentrations of PB or PB—OH, and after 30 min pre-incubation, 2.5 nM [^3H]—PB was added. The mixture was incubated for 30 min, and luminescence signals were read using a MicroBeta2 Plate Counter (PerkinElmer). Prism 6 (Graphpad) was used for non-linear regression curve fitting of the data. • a. • b. HeLa nuclear extract preparation (for in vitro splicing modulation assay below) • c. HeLa S3 cell pellets were resuspended in hypotonic buffer (10 mM HEPES pH 7.9, 1.5 mM MgCl2, 10 mM KCl, 0.2 mM PMSF, and 0.5 mM DTT) and the suspension was brought up to a total of 5 packed cell volume (PCV). After centrifugation, the supernatant was discarded, and the cells were brought up to 3 PCV with hypotonic buffer and incubated on ice for 10 minutes. Cells were lysed using a dounce homogenizer and then centrifuged. The supernatant was discarded, and the pellet was resuspended with ½ packed nuclear volume (PNV) of low salt buffer (20 mM HEPES pH 7.9, 1.5 mM MgCl2, 20 mM KCl, 0.2 mM EDTA, 25% glycerol, 0.2 mM PMSF, 0.5 mM DTT), followed by ½ PNV of high salt buffer (same as low salt buffer except 1.4 M KCl was used). The nuclei were gently mixed for 30 minutes before centrifuging. The supernatant (nuclear extract) was then dialyzed into storage buffer (20 mM HEPES pH 7.9, 100 mM KCl, 0.2 mM EDTA, 20% glycerol, 0.2 mM PMSF, 0.5 mM DTT). Protein concentration was determined using NanoDrop 8000 UV-Vis spectrophotometer (ThermoFisher Scientific). • d. In vitro splicing assay (IVS)

[2] = system: Panc 05.04 cells (SF3b K700E mutant); test: Cell proliferation and viability, CellTiter-Glo, 72 hours; type: cell-based; details: for GI50: geometric mean
Method: as §1, §2, §3, §4, §5, §6

[3] = system: Ad2 variant pre-mRNAs spliced in HeLa S3 nuclear extracts; test: In vitro splicing assay (IVS), RT-qPCR of spliced product; type: biochemical; details: for IC50: geometric mean; for Ratio Ad2.1/2.2: ratio of IVS IC50 Ad2.1 to Ad2.2
Method: as §7
All Ad2-derived (Pellizzoni et al., 1998) sequences were cloned into pcDNA3.1(+) vector (Promega) using 5′ EcoRI and 3′ XbaI restriction sites. The plasmids were linearized using XbaI and used as DNA templates in the in vitro transcription reactions. The FtzΔi intron-less plasmid (Luo and Reed, 1999) was linearized using EcoRI. All RNAs were in vitro transcribed and then purified using MEGAScript T7 (Invitrogen) and MegaClear (Invitrogen) kits, respectively. For splicing reactions using Ad2 variant pre-mRNAs, […] reactions were prepared using 8 μg nuclear extracts prepared from HeLa S3, 2 ng pre-mRNA, 0.2 ng FTZΔi, and varying concentrations of exemplary payloads or DMSO. After a 15 minute pre-incubation at 30° C., 1 μL splicing activation buffer (0.5 mM ATP, 20 mM creatine phosphate, 1.6 mM MgCl2) was added, and the reactions were incubated for 90 minutes at 30° C. The reactions were then quenched with 13 μL it DMSO, and 25 nL was used for RT-qPCR. RT-qPCR reactions were prepared using TaqMan RNA-to-CT 1-step kit (Life Technologies), RNA from splicing reactions, Ad2 (forward: […]; reverse: […]; probe: […]) and Ftz (forward: […]; reverse: […]; probe: […]) mRNA primer-probe sets. Prism 6 (Graphpad) was used for non-linear regression curve fitting of the formed spliced product and normalized to the control (DMSO) sample.

[4] = 72 h, NCIH1568.1, -100% = cidal, 0% = static, 100% = uninhibited growth
[5] = NCI-H1568, 72 h, read-out: CTGlo-ATS GMean GI50 (nM) 72 h NCIH1568.1, 72 h, NCIH1568.1
[6] = 72 h, PANC0504.1, -100% = cidal, 0% = static, 100% = uninhibited growth
[7] = Panc 05.04, 72 h, read-out: CTGlo-ATS GMean GI50 (nM) 72 h PANC0504.1, 72 h, PANC0504.1
[8] = Ad2.1 pre-mRNA substrate, read-out: qPCR-IVS-ATS GMean IC50 (nM) Ad2.1
[9] = Ad2.2 pre-mRNA substrate, read-out: qPCR-IVS-ATS GMean IC50 (nM) Ad2.2
[10] = NCI-H1568, read-out: CTGlo-ATS GMean GI50 (nM) 72 h NCIH1568.1, NCIH1568.1 cells, 72 h
[11] = NCIH1568.1 cells, 72 h, −100% cidal, 0% static, 100% maximal growth
[12] = PANC0504.1 cells, 72 h, −100% cidal, 0% static, 100% maximal growth
[13] = Panc 05.04, read-out: CTGlo-ATS GMean GI50 (nM) 72 h PANC0504.1, PANC0504.1 cells, 72 h
[14] = Panc 05.04, 72 h, read-out: CTGlo-ATS GMean GI50 (nM) 72 h PANC0504.1, PANC0504.1 cells, 72 h

Row | IC50 (SF3b complexes) | Compound | CTGlo-ATS Mean MinResponse % 72 h NCIH1568.1 [1, 4] | GI50 [1, 5] | CTGlo-ATS Mean MinResponse % 72 h PANC0504.1 [2, 6] | GI50 [2, 7] | IC50 [3, 8] | IC50 [3, 9] | Ratio Ad2.1/2.2 [3] | GI50 [1, 10] | CTGlo-ATS Mean MinResponse % 72 h NCIH1568.1 [1, 11] | CTGlo-ATS Mean MinResponse % 72 h PANC0504.1 [2, 12] | GI50 [2, 13] | GI50 ([1]; NCI-H1568, 72 h, read-out: CTGlo-ATS GMean GI50 (nM) 72 h NCIH1568.1, NCIH1568.1 cells, 72 h) | GI50 [2, 14]
1 | 3.96 nM | C/C(=C\c1cc(F)cc(N2CCN(C(=O)Cn3cccn3)CC2)c1)[C@H]1OC(=O)C[C@H](O)CC[C@H](C)[C@@H](OC(=O)N2CC[C@H](N(C)C)C2)/C=C/[C@@H]1C [Compound 228, [(2S,3S,4E,6R,7S,10R)-2-[(E)-1-[3-fluoro-5-[4-(2-pyrazol-1-ylacetyl)piperazin-1-yl]phenyl]prop-1-en-2-yl]-10-hydroxy-3,7-dimethyl-12-oxo-1-oxacyclododec-4-en-6-yl] (3S)-3-(dimethylamino)pyrrolidine-1-carboxylate] | −77.633% | 3.29 nM |  |  |  |  |  |  |  |  |  |  | 
2 | 3.25 nM | C/C(=C\c1cc(F)cc(N2CCN(C(=O)Cn3cccn3)CC2)c1)[C@H]1OC(=O)C[C@H](O)CC[C@H](C)[C@@H](OC(=O)N2CCC(N(C)C)C2)/C=C/[C@@H]1C (stereo in doubt) [Compound 227, [(2S,3S,4E,6R,7S,10R)-2-[(E)-1-[3-fluoro-5-[4-(2-pyrazol-1-ylacetyl)piperazin-1-yl]phenyl]prop-1-en-2-yl]-10-hydroxy-3,7-dimethyl-12-oxo-1-oxacyclododec-4-en-6-yl] (3S)-3-(dimethylamino)pyrrolidine-1-carboxylate] | −81.522% | 2.37 nM |  |  |  |  |  |  |  |  |  |  | 
3 |  | C/C(=C\c1cccc(COC(=O)N2CCC(O)CC2)c1)[C@H]1OC(=O)C[C@H](O)CC[C@H](C)[C@@H](OC(=O)N2CCN(C)CC2)/C=C/[C@@H]1C [Compound 261, [(2S,3S,4E,6R,7S,10R)-10-hydroxy-2-[(E)-1-[3-[(4-hydroxypiperidine-1-carbonyl)oxymethyl]phenyl]prop-1-en-2-yl]-3,7-dimethyl-12-oxo-1-oxacyclododec-4-en-6-yl] 4-methylpiperazine-1-carboxylate] | −36.811% | 57.6 nM | −89.906% | 32.3 nM | 23300 nM | 76.6 nM | 304.222 |  |  |  |  |  | 
4 |  | C/C(=C\c1ccc(S(=O)(=O)NC2CC2)c(F)c1)[C@H]1OC(=O)C[C@H](O)CC[C@H](C)[C@@H](OC(=O)N2CCN(C)CC2)/C=C/[C@@H]1C [Compound 90, [(2S,3S,4E,6R,7S,10R)-2-[(E)-1-[4-(cyclopropylsulfamoyl)-3-fluorophenyl]prop-1-en-2-yl]-10-hydroxy-3,7-dimethyl-12-oxo-1-oxacyclododec-4-en-6-yl] 4-methylpiperazine-1-carboxylate] |  |  |  |  | > 25000 nM | 168 nM |  | 107 nM | −8.495% | −12.315% | 141 nM |  | 
5 |  | C/C(=C\c1cc(F)cc(N2CCOCC2)c1)[C@H]1OC(=O)C[C@H](O)CC[C@H](C)[C@@H](OC(=O)N(C)Cc2ccncc2)/C=C/[C@@H]1C [Compound 47] |  |  |  |  | 16900 nM | 79.6 nM |  | 66.5 nM | −44.494% | −87.783% | 78.2 nM |  | 
6 |  | C/C(=C\c1cccc(COC(=O)N2CCCC2CO)c1)[C@H]1OC(=O)C[C@H](O)CC[C@H](C)[C@@H](OC(=O)N2CCN(C)CC2)/C=C/[C@@H]1C (stereo in doubt) [Compound 259, [(2S,3S,4E,6R,7S,10R)-10-hydroxy-2-[(E)-1-[3-[[(2R)-2-(hydroxymethyl)pyrrolidine-1-carbonyl]oxymethyl]phenyl]prop-1-en-2-yl]-3,7-dimethyl-12-oxo-1-oxacyclododec-4-en-6-yl] 4-methylpiperazine-1-carboxylate] | −43.329% | 133 nM | −86.489% | 31.5 nM | > 25000 nM | 83.1 nM | 300.977 |  |  |  |  |  | 
7 |  | C/C(=C\c1cc(F)cc(N2CCC(O)CC2)c1)[C@H]1OC(=O)C[C@H](O)CC[C@H](C)[C@@H](OC(=O)N2CCN(C)CC2)/C=C/[C@@H]1C [Compound 30] |  |  |  |  | 19.1 nM | 11 nM |  |  | −78.664% | −75.997% |  | 5.89 nM | 7.02 nM
8 |  | C/C(=C\c1ccc(F)c(N2CCOCC2)c1)[C@H]1OC(=O)C[C@H](O)CC[C@H](C)[C@@H](OC(=O)N2CCN(C)CC2)/C=C/[C@@H]1C [Compound 8] |  |  |  |  | 14200 nM | 42.2 nM |  |  |  | −94.207% |  |  | 19.3 nM
